The subject of data set [1] is anterior segment of the eye. Description: Ophthalmological examination of anterior ocular segment (slit-lamp, fluorescein staining). The class given is in vivo, rabbit. The protocol:
(§1) Twenty-four hours after administration, the anterior segment of the eye was observed using a slit-lamp biomicroscope SL-130 (Carl Zeiss Meditec AG, Jena, Germany). The corneal epithelial damage was evaluated by staining with fluorescein (AYUMI Pharmaceutical Corporation, Tokyo, Japan). After anterior ocular observation, the rabbits were euthanized in the same manner as the comet assay, and the eyeballs of the rabbits were collected.

Another data set deals with rabbit cornea. Put plainly: Histopathological examination of cornea. The note with it: in vivo. Here is the method:
as §1
The collected eyes (one eye per group) were fixed with 1% formaldehyde/2.5% glutaraldehyde in 0.1 M phosphate buffer fixative overnight at 4 °C and post-fixed with 10% neutral-buffered formalin solution. The tissues were dehydrated using a graded alcohol series and embedded in paraffin. Approximately 3-μm-thick corneal tissue sections were prepared and stained with hematoxylin and eosin. All microscopic images were obtained with a BX53 microscope fitted with a DP74 digital camera (Olympus Corporation) and analyzed using the cellSens Standard imaging software, version 2.3 (Olympus Corporation).

The subject of data set [2] is corneal epithelial cells of rabbit. Description: In vivo alkaline comet assay of corneal epithelial cells after single ocular instillation. Here is the method:
Experiments were performed per sampling time, and […] clinically normal rabbits were randomly assigned to each treatment group.
After ocular instillation, the eyelids were artificially blinked several times. The rabbits were euthanized after 0.5, 2, 4, 6, and 24 h by intravenously administering an overdose (approximately 90 mg/kg) of thiopental solution (Ravonal; Nipro ES Pharma Co. Ltd., Osaka, Japan). The eyeballs of the rabbits were collected after euthanasia and subjected to the comet assay.
The collected eyes were washed with Ca^2+- and Mg^2+-free phosphate-buffered saline (PBS). After washing, the corneas were removed from the eyes using scissors. The removed corneas were treated with 1.2 unit/mL Dispase II (Roche Diagnostics K.K., Tokyo, Japan) in minimum essential media (MEM; Thermo Fisher Scientific K. K., Tokyo, Japan) supplemented with 10% bovine serum (10% BS/MEM) overnight at 4 °C. Corneal epithelial cells were isolated using a spatula and placed into fresh 10% BS/MEM. The cells were centrifuged at 200×g for 5 min, and the supernatants were discarded. The cells were resuspended in 1 mL of 0.25% trypsin (Thermo Fisher Scientific K. K.) and incubated for 10 min at 37 °C. Furthermore, 8 mL of 10% BS/MEM was added to the cells, and the cell suspensions were passed through a 70-μm cell strainer. The cells were centrifuged at 200×g for 5 min, and the supernatants were discarded. The cells were then resuspended with PBS to a density of approximately 2 × 10^5 cells/mL.
The alkaline comet assay was conducted according to previously published method. A 30 μL of the prepared cell suspension was mixed with 270 μL of melted agarose solution (CometAssay LMAgarose; Trevigen, Inc., Gaithersburg, MD). Then, 30 μL of this mixture was placed in each well of a 20-well slide (CometSlide HT, Trevigen, Inc.), and the slide was left for approximately 10 min at 4 °C to solidify the agarose. The slide was immersed in lysis solution (pH 10) containing 2.5 M sodium chloride, 100 mM di-sodium dihydrogen ethylenediaminetetraacetate dihydrate (EDTA∙2Na), 10 mM tris(hydroxymethyl)aminomethane (Tris), and 1% (v/v) polyethylene glycol mono-p-isooctylphenyl ether for 1 h at 4 °C. Subsequently, the slide was immersed in an alkaline unwinding solution (200 mM sodium hydroxide and 1 mM EDTA, pH > 13) for 20 min at room temperature. Electrophoresis was performed with the same solution at 1 V/cm for 30 min under refrigeration. After electrophoresis, the slide was washed twice with ultrapure water and dehydrated by immersion in ethanol for 10 min. The slide was stained with SYBR Green I Nucleic Acid Gel Stain (excitation maxima at 497 nm, emission maxima at 520 nm; Thermo Fisher Scientific K. K.) diluted 1:1000 with Tris-EDTA buffer (pH 7.5) and mounted using ProLong Gold (Thermo Fisher Scientific K. K.). The slide was observed using a BX51 fluorescence microscope (Olympus Corporation, Tokyo, Japan) with a NIBA filter (excitation at 460–495 nm and emission at 510–550 nm) equipped with a CCD camera (scA1300-32 fm; Basler AG, Ahrensburg, Germany).
First, the number of “hedgehogs” was counted among 150 comets per eye (450 comets per group). According to the Atlas of Comet Assay Images, hedgehogs are highly fragmented cells presenting as a small or non-existent comet head and large diffuse comet tail. Second, 150 scorable comets (i.e., with a clearly defined head and tail with no interference from neighboring cells) without hedgehogs were measured per eye (450 comets per group).

For data set [3], the system named is HCE-T cells. Put plainly: Cytotoxicity assay (Cell Counting Kit-8) after 1 min exposure. The format is cell-based, human. The protocol: (§2) For cytotoxicity assay, the HCE-T cells were seeded in a 96-well culture plate at a density of 5 × 10^3 cells/well (100 μL/well) and incubated for approximately 24 h. After the 24-h incubation, the cells were washed with PBS. The cells were then exposed to a mixture of 50 μL of serum-free medium and an equal volume of test compounds at twice concentration of final concentration for 1 min at room temperature. After the treatment, the cells were washed with PBS, and 100 μL of fresh culture medium was added. The cells were further incubated for 2, 4, 6, and 24 h at 37 °C. After that, the cells were incubated with 100 μL of Cell Counting Kit-8 (Dojindo Laboratories Co., Ltd., Kumamoto, Japan) diluted to one-tenth with a serum-free medium for 2 h at 37 °C. Absorbance was measured at 450 nm using a microplate reader (Synergy HTX, BioTek Instruments Inc., Winooski, VT). Cell viability was calculated as follows: the absorbance of compound-treated cells/the absorbance of non-treated cells, expressed as a percentage (n = 3/group).
(§3) The mean and SD of the % tail DNA and cell viability (%) were calculated for all experimental groups. […] JMP version 15.1.0 was used for all statistical analyses.
(In general: Tetrazolium dyes change colour on reduction, which living cells bring about.)

Assay in data set [4]: as above
The format is cell-based, human. The note with it: human. The protocol: as §2, §3

In data set [5] the test system is HCE-T cells. Put plainly: In vitro comet assay after 1 min exposure. The format is cell-based, human. The protocol: To assess time-course changes in DNA damage after short-time exposure to the genotoxic compounds, the in vitro comet assay was performed using HCE-T cells with reference to our previous study. Briefly, the HCE-T cells were seeded in a 12-well culture plate at a density of 5 × 10^4 cells/well (1 mL/well) and incubated for approximately 24 h. After a 24-h incubation, the cells were washed with PBS. […] After the treatment, the cells were washed with PBS, and 1 mL of fresh culture medium was added. The cells were further incubated for 2, 4, 6, and 24 h at 37 °C. After incubation, the cells were trypsinized (TrypLE™ Express, Thermo Fisher Scientific K.K.). In the same manner, the cells were exposed to the test compounds or distilled water as a negative control for 1 min to evaluate DNA damage immediately after exposure. Immediately after the treatment, the cells were washed and trypsinized. The collected cells were centrifuged and re-suspended in PBS at a density of 1–2 × 10^5 cells/mL. Comet assay was performed as described previously herein (n = 3/group).
as §3

Where [6] appears, read: after single ocular instillation (1% EtBr, 3% MMS, 1% 4-NQO), sampling at 0.5, 2, 4, 6, 24 h.

The structures appear in SMILES notation. Where two headings read alike, the source gives them in different places. Marks after values point to notes of the source that are not given here.

The term viability denotes a read-out of living cells in per cent, often relative to untreated cells. Take `COS(C)(=O)=O` [MMS, methyl methanesulfonate]: the “Ophthalmological changes of the anterior ocular segment” value in data set [1] (rabbit, in vivo) was “No abnormal ophthalmological changes”. For the same compound, the “Infiltrate, inflammatory cell, corneal limbus” value in the data set on rabbit cornea is listed as “±”. Besides, the “Time of the peak value of the % tail DNA” value in data set [2] (rabbit, in vivo) was 0.5 h. In data set [2] (rabbit, in vivo, 0.5 h), the “% tail DNA, mean ± SD” value was determined as 66.2 ± 1.8%; the “% tail DNA, median” value is 70.8%; the Frequency of hedgehog is listed as 12.9 ± 7.8^a %. Further, in data set [2] (rabbit, in vivo, 2 h), the “% tail DNA, mean ± SD” value amounted to 63.6 ± 4.4%; the “% tail DNA, median” value is on record as 69.4%; the Frequency of hedgehog is on record as 13.6 ± 8.3^a %. Further, in data set [2] (rabbit, in vivo, 4 h), the “% tail DNA, mean ± SD” value is listed as 47.1 ± 7.2%; the “% tail DNA, median” value was found to be 48.9%; the Frequency of hedgehog is on record as 10.7 ± 1.0^a %. In data set [2] (rabbit, in vivo, 6 h), the “% tail DNA, mean ± SD” value came to 50.1 ± 2.8%; the “% tail DNA, median” value amounted to 56.0%; the Frequency of hedgehog was 8.0 ± 2.0^a %. In addition, in data set [2] (rabbit, in vivo, 24 h), the “% tail DNA, mean ± SD” value was determined as 40.1 ± 2.4%; the “% tail DNA, median” value stood at 38.1%; the Frequency of hedgehog is on record as 2.0 ± 1.0^a %. In addition, in the data set with HCE-T cells [3], the “Cytotoxicity (in words)” value is given as “no cytotoxicity”. Also, in data set [4], the viability at 2 h was found to be 115 ± 5.1%, the viability at 4 h stood at 108.1 ± 0.3%, the viability at 6 h was 108 ± 4.9% and the viability at 24 h was found to be 108 ± 11.3%. The “Change of % tail DNA after removing the compound” value in the data set with HCE-T cells [5] is “decreased”.

Take `O=[N+]([O-])c1cc[n+]([O-])c2ccccc12` [4-NQO, 4-nitroquinoline 1-oxide]: the “Time of the peak value of the % tail DNA” value in data set [2] (setting [6]) was 0.5 h. Besides, in data set [4] (read-out: Cell viability), the viability at 2 h turned out to be 139 ± 2%, the viability at 4 h amounted to 114 ± 14.5%, the viability at 6 h is 123 ± 24.2% and the viability at 24 h worked out at 118 ± 13.9%.

As to `CC[n+]1c(-c2ccccc2)c2cc(N)ccc2c2ccc(N)cc21` [EtBr, ethidium bromide], the “Ophthalmological changes of the anterior ocular segment” value in data set [1] (24 h after single ocular instillation (1% EtBr, 3% MMS)) is on record as “No abnormal ophthalmological changes”. Besides, the “% tail DNA, median” value is 25.8% in data set [2] (0.5 h after single ocular instillation (1% EtBr, 3% MMS, 1% 4-NQO)); 22.6% in data set [2] (2 h after single ocular instillation (1% EtBr, 3% MMS, 1% 4-NQO)); 61.5% in data set [2] (4 h after single ocular instillation (1% EtBr, 3% MMS, 1% 4-NQO)); 40.4% in data set [2] (6 h after single ocular instillation (1% EtBr, 3% MMS, 1% 4-NQO)); 5.4% in data set [2] (24 h after single ocular instillation (1% EtBr, 3% MMS, 1% 4-NQO)). Also, the Frequency of hedgehog in data set [2] (0.5 h after single ocular instillation (1% EtBr, 3% MMS, 1% 4-NQO), mean ± SD, n = 3) is given as 3.6 ± 2.5%; in data set [2] (2 h after single ocular instillation (1% EtBr, 3% MMS, 1% 4-NQO), mean ± SD, n = 3), 3.3 ± 1.7%; in data set [2] (4 h after single ocular instillation (1% EtBr, 3% MMS, 1% 4-NQO), mean ± SD, n = 3), 8.9 ± 3.5^a %; in data set [2] (6 h after single ocular instillation (1% EtBr, 3% MMS, 1% 4-NQO), mean ± SD, n = 3) it was 1.6 ± 2.3%; in data set [2] (24 h after single ocular instillation (1% EtBr, 3% MMS, 1% 4-NQO), mean ± SD, n = 3), 0.4 ± 0.6%. Further, the “% tail DNA, mean ± SD” value stood at 31.0 ± 3.0% in data set [2] (0.5 h after single ocular instillation of 50 μL (1% EtBr, 3% MMS, 1% 4-NQO), n = 3 eyes); 28.1 ± 1.6% in data set [2] (2 h after single ocular instillation of 50 μL (1% EtBr, 3% MMS, 1% 4-NQO), n = 3 eyes); 55.3 ± 1.4% in data set [2] (4 h after single ocular instillation of 50 μL (1% EtBr, 3% MMS, 1% 4-NQO), n = 3 eyes); 41.0 ± 6.5% in data set [2] (6 h after single ocular instillation of 50 μL (1% EtBr, 3% MMS, 1% 4-NQO), n = 3 eyes); 10.0 ± 4.0% in data set [2] (24 h after single ocular instillation of 50 μL (1% EtBr, 3% MMS, 1% 4-NQO), n = 3 eyes). Further, the “Time of the peak value of the % tail DNA” value in data set [2] (setting [6]) came to 4 h. Moreover, the “Cytotoxicity (in words)” value with HCE-T cells [3] (24 h after removing the compound, 1 min exposure, 0.5% EtBr) was “Moderate cytotoxicity”; in the data set on HCE-T cells [3] (other times (2, 4, 6 h) after removing the compound, 1 min exposure, 0.5% EtBr), “slight cytotoxicity”. In addition, the viability at 2 h in data set [4] (read-out: Cell viability) came to 89.3 ± 6.1%. The viability at 4 h in data set [4] (read-out: Cell viability) is 74.7 ± 8%. In addition, the viability at 6 h in data set [4] (read-out: Cell viability) was found to be 73.1 ± 4.6%. In addition, the viability at 24 h in data set [4] (read-out: Cell viability) was 39.1 ± 1.3%. Further, the “Change of % tail DNA after removing the compound” value with HCE-T cells [5] (1 min exposure (0.5% EtBr, 0.5% MMS, 0.001% 4-NQO), then 2, 4, 6, 24 h in fresh medium) is “gradually increased”.

Source of the values: PMC9082918, “Time-course changes in DNA damage of corneal epithelial cells in rabbits following ocular instillation with genotoxic compounds” (Genes and Environment, 2022).
